Assay results taken from PMC12373499 (Nature Metabolism, 2025).
Where a SMILES comes first, the peptide text is derived from it. [ ]: non-standard residue; d: D form. The star is where a group is joined. X1 = CN1C(=CC=CC=CC2=[N+](CCCCCC(=O)NCCN3C(=O)CC(*)C3=O)c3ccccc3C2(C)C)C(C)(C)c2ccccc21; Aib = CC(C)(N)C(=O)O

System: MIN6-CB4 β cells
Assay: MIN6-CB4 cell fluorescent probe labelling, colocalization
Type: cell-based
Method: MIN6-CB4 cells were generated and phenotyped, as previously described. Cells were grown to 70% confluency in MIN6 media (DMEM High Glucose supplemented with 15% FBS, 71 μM 2-mercaptoethanol, 2 mM glutamine, 100 units ml^−1 penicillin, 100 μg ml^−1 streptomycin). Cells were then seeded in 100 μl MIN6 media per well, on a glass-bottomed 96-well imaging plate previously coated with poly-L-lysine 0.01%.
Probe labelling was analysed using corrected total cell fluorescence, which is integrated density − (area of selected cell × mean fluorescence of background readings)[52],[53]. Colocalization was determined using Manders’ coefficient, which calculates the proportion of pixels in one channel that also show intensity from both channels. Full width at half maximum was used to analyse labelling patterns at the membrane versus cytoplasm. All analyses were performed in ImageJ (NIH), with brightness and contrast linearly adjusted across the entire image for presentation purposes and applied equally between all states under examination.

[1] = daLUXendin660 (tirz Cy5 500nM) vs LUXendin551 (100nM), image 2022.05.06 1-1
[2] = daLUXendin660 (tirz Cy5 500nM) vs LUXendin551 (100nM), image 2022.05.06 1-2
[3] = daLUXendin660 (tirz Cy5 500nM) vs LUXendin551 (100nM), image 2022.05.06 1-3
[4] = daLUXendin660 (tirz Cy5 500nM) vs LUXendin551 (100nM), image 2022.05.06 1-4
[5] = daLUXendin660 (tirz Cy5 500nM) vs LUXendin551 (100nM), image 2022.05.06 2-1
[6] = daLUXendin660 (tirz Cy5 500nM) vs LUXendin551 (100nM), image 2022.05.06 2-2
[7] = daLUXendin660 (tirz Cy5 500nM) vs LUXendin551 (100nM), image 2022.05.06 2-3
[8] = daLUXendin660 (tirz Cy5 500nM) vs LUXendin551 (100nM), image 2022.05.06 2-4
[9] = daLUXendin660 (tirz Cy5 500nM) vs LUXendin551 (100nM), image 2022.05.12 1-1
[10] = daLUXendin660 (tirz Cy5 500nM) vs LUXendin551 (100nM), image 2022.05.12 1-2
[11] = daLUXendin660 (tirz Cy5 500nM) vs LUXendin551 (100nM), image 2022.05.12 1-3
[12] = daLUXendin660 (tirz Cy5 500nM) vs LUXendin551 (100nM), image 2022.05.12 1-4
[13] = daLUXendin660 (tirz Cy5 500nM) vs LUXendin551 (100nM), image 2022.05.12 2-1
[14] = daLUXendin660 (tirz Cy5 500nM) vs LUXendin551 (100nM), image 2022.05.12 2-2
[15] = daLUXendin660 (tirz Cy5 500nM) vs LUXendin551 (100nM), image 2022.05.12 2-3
[16] = daLUXendin660 (tirz Cy5 500nM) vs LUXendin551 (100nM), image 2022.05.12 2-4
[17] = daLUXendin660 (tirz Cy5 500nM) vs sGIP549 (JB2228 100nM), image 2022.05.06 1-1
[18] = daLUXendin660 (tirz Cy5 500nM) vs sGIP549 (JB2228 100nM), image 2022.05.06 1-2
[19] = daLUXendin660 (tirz Cy5 500nM) vs sGIP549 (JB2228 100nM), image 2022.05.06 1-3
[20] = daLUXendin660 (tirz Cy5 500nM) vs sGIP549 (JB2228 100nM), image 2022.05.06 1-4
[21] = daLUXendin660 (tirz Cy5 500nM) vs sGIP549 (JB2228 100nM), image 2022.05.06 2-1
[22] = daLUXendin660 (tirz Cy5 500nM) vs sGIP549 (JB2228 100nM), image 2022.05.06 2-2
[23] = daLUXendin660 (tirz Cy5 500nM) vs sGIP549 (JB2228 100nM), image 2022.05.06 2-3
[24] = daLUXendin660 (tirz Cy5 500nM) vs sGIP549 (JB2228 100nM), image 2022.05.06 2-4
[25] = daLUXendin660 (tirz cy5 500nM) vs sGIP549 (JB2228 100nM), image 2022.05.12 1-1
[26] = daLUXendin660 (tirz cy5 500nM) vs sGIP549 (JB2228 100nM), image 2022.05.12 1-2
[27] = daLUXendin660 (tirz cy5 500nM) vs sGIP549 (JB2228 100nM), image 2022.05.12 1-3
[28] = daLUXendin660 (tirz cy5 500nM) vs sGIP549 (JB2228 100nM), image 2022.05.12 1-4
[29] = daLUXendin660 (tirz cy5 500nM) vs sGIP549 (JB2228 100nM), image 2022.05.12 2-1
[30] = daLUXendin660 (tirz cy5 500nM) vs sGIP549 (JB2228 100nM), image 2022.05.12 2-2
[31] = daLUXendin660 (tirz cy5 500nM) vs sGIP549 (JB2228 100nM), image 2022.05.12 2-3
[32] = daLUXendin660 (tirz cy5 500nM) vs sGIP549 (JB2228 100nM), image 2022.05.12 2-4

## CC[C@H](C)[C@H](NC(=O)[C@H](CC(C)C)NC(=O)[C@H](Cc1c[nH]c2ccccc12)NC(=O)[C@H](CCC(N)=O)NC(=O)[C@@H](NC(=O)[C@H](Cc1ccccc1)NC(=O)[C@H](C)NC(=O)[C@H](CCCCN)NC(=O)[C@H](CCC(N)=O)NC(=O)[C@H](C)NC(=O)[C@@H](NC(=O)[C@H](CCCCN)NC(=O)[C@H](CC(=O)O)NC(=O)[C@H](CC(C)C)NC(=O)C(C)(C)NC(=O)[C@@H](NC(=O)[C@H](CO)NC(=O)[C@H](Cc1ccc(O)cc1)NC(=O)[C@H](CC(=O)O)NC(=O)[C@H](CO)NC(=O)[C@@H](NC(=O)[C@H](Cc1ccccc1)NC(=O)[C@@H](NC(=O)CNC(=O)[C@H](CCC(=O)O)NC(=O)C(C)(C)NC(=O)[C@@H](N)Cc1ccc(O)cc1)[C@@H](C)O)[C@@H](C)O)[C@@H](C)CC)[C@@H](C)CC)C(C)C)C(=O)N[C@@H](C)C(=O)NCC(=O)NCC(=O)N1CCC[C@H]1C(=O)N[C@@H](CO)C(=O)N[C@@H](CO)C(=O)NCC(=O)N[C@@H](C)C(=O)N1CCC[C@H]1C(=O)N1CCC[C@H]1C(=O)N1CCC[C@H]1C(=O)N[C@@H](CSC1CC(=O)N(CCNC(=O)CCCCC[N+]2=C(C=CC=CC=C3N(C)c4ccccc4C3(C)C)C(C)(C)c3ccccc32)C1=O)C(N)=O (stereo partly shown) [daLUXendin660] (H-Y[Aib]EGTFTSDYSI[Aib]LDKIAQKAFVQWLIAGGPSSGAPPPC(X1)-NH2)
[1]
  Manders' R: 0.82
  Pearson's: 0.663
[2]
  Manders' R: 0.763
  Pearson's: 0.555
[3]
  Manders' R: 0.866
  Pearson's: 0.756
[4]
  Manders' R: 0.82
  Pearson's: 0.61
[5]
  Manders' R: 0.849
  Pearson's: 0.778
[6]
  Manders' R: 0.803
  Pearson's: 0.595
[7]
  Manders' R: 0.811
  Pearson's: 0.656
[8]
  Manders' R: 0.83
  Pearson's: 0.66
[9]
  Manders' R: 0.861
  Pearson's: 0.826
[10]
  Manders' R: 0.847
  Pearson's: 0.812
[11]
  Manders' R: 0.799
  Pearson's: 0.723
[12]
  Manders' R: 0.766
  Pearson's: 0.713
[13]
  Manders' R: 0.8
  Pearson's: 0.745
[14]
  Manders' R: 0.809
  Pearson's: 0.769
[15]
  Manders' R: 0.825
  Pearson's: 0.795
[16]
  Manders' R: 0.894
  Pearson's: 0.914
[17]
  Manders' R: 0.9
  Pearson's: 0.838
[18]
  Manders' R: 0.901
  Pearson's: 0.809
[19]
  Manders' R: 0.886
  Pearson's: 0.756
[20]
  Manders' R: 0.894
  Pearson's: 0.818
[21]
  Manders' R: 0.899
  Pearson's: 0.824
[22]
  Manders' R: 0.894
  Pearson's: 0.796
[23]
  Manders' R: 0.901
  Pearson's: 0.822
[24]
  Manders' R: 0.878
  Pearson's: 0.769
[25]
  Manders' R: 0.862
  Pearson's: 0.834
[26]
  Manders' R: 0.735
  Pearson's: 0.645
[27]
  Manders' R: 0.775
  Pearson's: 0.722
[28]
  Manders' R: 0.833
  Pearson's: 0.821
[29]
  Manders' R: 0.823
  Pearson's: 0.764
[30]
  Manders' R: 0.748
  Pearson's: 0.736
[31]
  Manders' R: 0.968
  Pearson's: 0.975
[32]
  Manders' R: 0.784
  Pearson's: 0.683
